Reference: patent publication US20230098403A1, “MAGNETIC RESONANCE IMAGING CONTRAST AGENT, PREPARATION METHOD AND USE THEREOF” (GUANGZHOU PINGLAN MEDICAL TECHNOLOGY CO., LTD., priority 2020, published 2023)
Values joined by “and” are separate entries in the source; they are usually repeats but may differ in a detail not shown here. Identical values can stand only once.

Columns and labels:
QSG7701 hepatocyte line = experiment: Hepatocyte toxicity test (MTT); format: cell-based, human
Experimental: One or two days later, when the cell density meet the requirements of passage (the cell growth rate reaches 80-90%), the cells were washed 1 to 2 times with PBS, and then PBS was removed and 1 mL trypsin was added to completely cover the surface of the cells for 1 to 2 minutes, followed by observing under an inverted microscope. When more than 90% of the cells have become large and round and could be shaken gently to remove a little, complete medium (DMEM medium:FBS:antibiotic=100:10:1) was immediately added to stop digestion. The cells were blow and separated, transferred to a 15 mL centrifuge tube, which was centrifuged at 1000 rpm for 5 min at room temperature, then the supernatant was removed. The cells were transferred to a […] petri dish, 5 to 10 ml fresh complete medium was added for further culture. Culture medium was changed after 2-3 days or subcultured in a ratio of 1:2 and 1:3.
2) Cryopreservation: when the cells were in the logarithmic growth phase and the growth state was good, cryopreservation was selected and a cryopreservation solution (DMEM:FBS:DMSO=6:3:1) was prepared as above, the cells were collected after stopping digestion and centrifuging in a centrifuge tube. The cells were suspended in the cryopreservation solution, the cell concentration (lx 10^6/mL to 10×10^6/mL) were adjusted and then the cells were divided into cryopreservation tubes, the cell type, date, cryopreserved person, and passage times were recorded. The tubes were placed in a gradient freezer box in a −80° C. freezer and transferred to a liquid nitrogen tank for storage the next day.
3) Cell recovery: a cryovial containing QSG7701 was taken out from the liquid nitrogen tank and put in a 37° C. water bath for 1 to 2 minutes and shaken quickly to thaw. The thawed cell fluid was transferred to a 15 mL centrifuge tube, centrifuged at 1000 rpm for 5 min at room temperature, then the supernatant was removed, and 5 to 10 mL fresh complete culture medium was added into it, the cell type, date, and the name of the culture person were recorded, the cells were cultured in a 37° C. incubator with 5% CO2. […]
4) Finally, the 96-well plate was taken out, the medium was removed, and 100 μl DMSO was added to the plate, shaken horizontally and mixed for 2-3 minutes to fully dissolve the crystals, and the OD value was read at the detection line of 595 nm with a microplate reader.
Origin 9.0 software was used for data mapping, and measurement data were expressed as mean±standard deviation (±sd); SPSS14.0 statistical software was used for data statistics, and univariate analysis was used.

[1] = Pharmacokinetics study, Mn^2+ in whole blood by ICP-MS; format: in vivo; settings: SD rats, caudal vein 0.1 mmol/kg, non-compartment model
Experimental: Totally 8 SD rats, 3 female rats and 5 male rats, weighed 220 to 240 g, were anesthetized by intraperitoneal injection of 3% pentobarbital sodium (50 mg/kg) and fixed in supine position, followed by removing neck hair and disinfecting routinely for later use.
Catheterization of left carotid artery comprises steps as follows: making a 20 mm longitudinal incision from the 3 mm left side of the median cervical line (the line from the sternum to the mandible) and 7 mm above the sternum; dissecting the skin to expose the subcutaneous tissue, and performing a blunt layer-by-layer dissection until the carotid artery was visualized; separating […] from its accompanied veins by blunt dissection; ligating distal portion and proximal portion of the heart respectively, wherein the distance between the nodes was 2.5-3.5 cm; inserting an indwelling needle into the artery near the node at the distal portion of the heart and fixing with a hemostatic clip, taking the needle out and releasing the node at the proximal portion of the heart; and injecting heparin lithium (150 μg/kg) to perform systemic heparinization in body.
Caudal vein was rapidly injected (<5s) with KBR0826 solution (0.05 mmol/mL) at a dose of 0.1 mmol/kg. Before injection and within 1 min, 2 min, 3 min, 5 min, 8 min, 13 min, 20 min, 30 min, and 50 min after the injection, 0.1 mL of carotid blood was respectively collected and placed in a 0.5 mL EP tube and stored at −20° C.
ICP-MS was configured with a power of 1150 W, a flow rate of argon for atomization gas of 0.95 L·min^−1, a flow rate of argon for auxiliary gas of 1.2 L·min^−1, a flow rate of argon for plasma gas of 18 L·min^−1, pump speed of 20 r·min^−1, an analytic mode being standard mode, repetition sampling in triple.
A set of standard solution was prepared with standard reagents (PerkinElmer, […] (1000 ppb): Ag, Al, As, Cs, Cu, Sr, Se, Mn, etc.) at different concentrations, i.e., at 1.0 ppb, 10 ppb, 50 ppb, 100 ppb, 200 ppb and 1000 ppb, to establish a standard curve (as shown in FIG. 3), and R^2 for the linear equation was >0.9999.
20 μL of sample (whole blood) was collected and diluted to 6 to 10 mL with 1% HNO3, such that the concentration of Mn^2+ ranged from 1 ppb to 100 ppb; sample IDs were generated and then the samples were measured, and Mn^2+ concentrations of the sample solutions were calculated according to the response intensity and the standard curve.
PKSolver 2.0 was used for calculating relevant pharmacokinetic parameters.

O=C([O-])CN(CP(=O)([O-])O)C1CCCCC1N(CC(=O)[O-])CP(=O)([O-])O.[Mn+2].[Na+].[Na+] (stereo not drawn) [KBR0826]
survival rate of the QSG7701 hepatocyte line (QSG7701 hepatocyte line; 0.02 mmol/L, 0.1 mmol/L or 0.5 mmol/L, each detection time point (6 h, 12 h, 24 h, 48 h), MTT, OD 595 nm): does not decrease significantly
survival rate of the QSG7701 hepatocyte line (QSG7701 hepatocyte line; 2.5 mmol/L, 24 h and 48 h, p<0.05): decrease significantly
survival rate of the QSG7701 hepatocyte line (QSG7701 hepatocyte line; 12.5 mmol/L, at 12 h, p<0.05): decreases significantly
inhibitory effect on the proliferation of QSG7701 hepatocyte line (QSG7701 hepatocyte line; within 24 hours, 25 times of the clinical dose (2.5 mmol/L)): non-obvious inhibitory effect
AUC0-inf [1]: 734.55 ± 333.06 mg·min/L
AUC0-t [1]: 712.59 ± 325.70 mg·min/L
AUMC0-inf [1]: 8419.63 ± 9547.34 mg/L · min^2
C0 [1]: 616.61 ± 568.85 µg/mL
MRT0-inf [1]: 11.26 ± 8.93 min
V [1]: 0.38 ± 0.45 L/kg
Vss [1]: 0.17 ± 0.30 L/kg
t1/2 (plasma half-life) [1]: 23 min and 22.87 ± 13.04 min
